Values belong to the compound of their own block, whether it stands above or below them.
Legend:
[1] = Blood biochemical assay (hematological parameters); format: in vivo, Kunming male mice; conditions: mice
Experimental: (§1) The Kunming male mice (weight of 28–30 g) were divided into 10 groups (n = 10): normal group, Frax or G2-β-CD-Frax treatment groups with a Frax dose of 5, 10, and 20 mg/kg, respectively, G2-β-CD solution treatment (equivalent to 20 mg/kg of G2-β-CD-Frax) group. Drug treatment continued every day for 7 weeks. One day after the last administration, blood and major tissues (heart, liver, spleen, lung, and kidney) were obtained from the blank group and drug-treated groups (20 mg/kg) for histological examination. The whole blood was directly analyzed using an automatic blood cell analyzer to obtain hematological parameters. The collected tissues were subjected to histological examination.

[2] = Safety evaluation for seven weeks, histological examination (H&E); format: in vivo, Kunming male mice; conditions: mice, oral daily for 7 weeks, 20 mg/kg or equivalent G2-β-CD
Experimental: as §1

[3] = Phase solubility study of Frax with CDs; format: physicochemical; conditions: 37 °C, from phase solubility curves
Experimental: Frax was excessively mixed with increasing molar concentrations (0–350.00 mM) of each CD aqueous solution. […] The samples were subjected to HPLC analysis after centrifugation (4024.8 g, 10 min). Phase solubility profiles were plotted by monitoring Frax concentration as a function of the molar concentration of each CD. Based on the phase solubility curves, we calculated the apparent stability constants (Kc, L/mol) according to Equation (1): (1) Kc=Slope/S0(1−Slope) where S0 is the water solubility of Frax at equilibrium.

Caco-2 cells = test: Cytotoxicity in Caco-2 cells (MTT assay); format: cell-based; conditions: 4 h
Experimental: (§2) Cytotoxicity effects and cellular uptake ability of Frax, CDs, and CDs-Frax complexes were examined using Caco-2 cells. […] Each CD solution was also used to determine whether the cell toxicity was caused by Frax or CDs. For cellular uptake studies, Caco-2 cells were treated with Frax and CDs-Frax (100 μg/mL) for 0.5, 1, and 2 h, respectively. For P-gp inhibition evaluation, the cells were pretreated with verapamil at a concentration of 100 μg/mL and further treated with each drug or formulation. Thereafter, the cells were washed and replenished with fresh PBS (300 μL). The cell lysate was prepared by three cycles of freeze-thaw. Protein concentration in the samples was quantified by the BCA kit while the Frax concentration was determined by HPLC.

[4] = Cytotoxicity in Caco-2 cells (MTT assay); format: cell-based; conditions: human, Caco-2 cells; Caco-2, 300 μg/mL, 4 h; read-out: cell viability (cells remained viable)
Experimental: as §2

[5] = 7 weeks, colchicine group (0.2 mg/kg), in % (unit assumed)
[6] = 7 weeks, colchicine group (0.2 mg/kg), in fL (unit assumed)

Compound: COc1cc2c(c(OC)c1OC)-c1ccc(OC)c(=O)cc1[C@@H](NC(C)=O)CC2 [Colchicine, colchicine, reference compound]
MCHC (mean corpuscular hemoglobin concentration) ([1]; 7 weeks): 341.86 ± 9.91 | PDW (platelet distribution width) ([1]; 7 weeks): 14.99 ± 0.22 | PLT (platelet) ([1]; 7 weeks, colchicine group (0.2 mg/kg), in 10^9/L (unit assumed)): 1363.86 ± 333.63 | HCT (haematocrit) [1, 5]: 39.06 ± 2.62 | RDW-CV (red cell volume distribution width) [1, 5]: 16.24 ± 1.60 | MCV (mean cell volume) [1, 6]: 43.09 ± 2.97 | MPV (meanplateletvolume) [1, 6]: 6.80 ± 0.51 | RDW-SD [1, 6]: 29.86 ± 4.02 | HGB (hemoglobin) ([1]; 7 weeks, colchicine group (0.2 mg/kg), in g/L (unit assumed)): 133.57 ± 9.50 | MCH (mean corpuscular hemoglobin) ([1]; 7 weeks, colchicine group (0.2 mg/kg), in pg (unit assumed)): 14.71 ± 0.70 | WBC (white blood cell) ([1]; 7 weeks, in 10^9/L (unit assumed)): 9.61 ± 4.41 | RBC (red blood cell) ([1]; 7 weeks, in 10^12/L (unit assumed)): 9.13 ± 1.01

Compound: OC[C@H]1O[C@H](O[C@H]2[C@H](O)[C@@H](O)[C@@H](OC[C@H]3O[C@@H]4O[C@H]5[C@H](O)[C@@H](O)[C@@H](O[C@H]6[C@H](O)[C@@H](O)[C@@H](O[C@H]7[C@H](O)[C@@H](O)C(O[C@H]8[C@H](O)[C@@H](O)[C@@H](O[C@H]9[C@H](O)[C@@H](O)[C@@H](O[C@H]%10[C@H](O)[C@@H](O)[C@@H](O[C@H]3[C@H](O)[C@H]4O)O[C@@H]%10CO)O[C@@H]9CO)O[C@@H]8CO)O[C@@H]7CO)O[C@@H]6CO)O[C@@H]5CO)O[C@@H]2CO)[C@H](O)[C@@H](O)[C@@H]1O [G2-β-CD, 6-O-α-D-maltosyl-β-cyclodextrin]
H&E staining of major tissues [2]: no inflammation and no cellular damage | changes in blood biochemical assay (in words) ([1]; oral daily for 7 weeks): no obvious changes | apparent stability constant (Kc) for Frax complexation [3]: 997.68 M⁻¹ | cell viability (cells remained viable) (Caco-2 cells; Caco-2, 300 μg/mL): over 85%

apparent stability constant (Kc) for Frax complexation [3]: 807.32 M⁻¹
Compound: CC(O)COC[C@H]1O[C@@H]2O[C@H]3[C@H](O)[C@@H](O)[C@@H](O[C@H]4[C@H](O)[C@@H](O)[C@@H](O[C@H]5[C@H](O)[C@@H](O)[C@@H](O[C@H]6[C@H](O)[C@@H](O)[C@@H](O[C@H]7[C@H](O)[C@@H](O)[C@@H](O[C@H]8[C@H](O)[C@@H](O)[C@@H](O[C@H]1[C@H](O)[C@H]2O)O[C@@H]8COCC(C)O)O[C@@H]7COCC(C)O)O[C@@H]6COCC(C)O)O[C@@H]5COCC(C)O)O[C@@H]4COCC(C)O)O[C@@H]3COCC(C)O (stereo partly drawn) [HP-β-CD, 2-hydroxypropyl-β-cyclodextrin]
viability at 4 h, 300 μg/mL [4]: > 85%

apparent stability constant (Kc) for Frax complexation [3]: 109.34 M⁻¹
Compound: OC[C@H]1O[C@@H]2O[C@H]3[C@H](O)[C@@H](O)[C@@H](O[C@H]4[C@H](O)[C@@H](O)[C@@H](O[C@H]5[C@H](O)[C@@H](O)[C@@H](O[C@H]6[C@H](O)[C@@H](O)[C@@H](O[C@H]7[C@H](O)[C@@H](O)[C@@H](O[C@H]8[C@H](O)[C@@H](O)[C@@H](O[C@H]1[C@H](O)[C@H]2O)O[C@@H]8CO)O[C@@H]7CO)O[C@@H]6CO)O[C@@H]5CO)O[C@@H]4CO)O[C@@H]3CO [β-CD, β-cyclodextrin]

Compound: Sulfobutyl ether-β-cyclodextrin [SBE-β-CD]
apparent stability constant (Kc) for Frax complexation [3]: 168.20 M⁻¹ | cell viability (Caco-2 cells; Caco-2, 200 and 300 μg/mL): lower than 80%

Source: publication PMC8451604, “Rational formulation engineering of fraxinellone utilizing 6-O-α-D-maltosyl-β-cyclodextrin for enhanced oral bioavailability and hepatic fibrosis therapy” (Drug Delivery, 2021)
